Publication PMC7221574 (Molecules, 2020)
“And” between values parts separate entries of the source, which are not always exact repeats. Equal entries are not always repeated. Where two headings read alike, the source gives them in different places.

Key:
[1] = system: LoVo/DX; experiment: cells; format: cell-based, human; settings: for RI (resistance index): RI = (IC50 for LoVo/DX)/(IC50 for LoVo); for IC50: 72 h, read-out: IC50 LoVo/DX
Description: (§1) The A549 cell line was purchased from the European Collection of Authenticated Cell Cultures (ECACC, Salisbury, UK). The MCF-7, LoVo and LoVo/DX cell lines was purchased from American Type Culture Collection (ATCC, Manassas, VA, USA). All the cell lines are maintained in the Institute of Immunology and Experimental Therapy (IIET), Wroclaw, Poland.
(§2) Human lung adenocarcinoma cell line was cultured in a mixture of OptiMEM and RPMI 1640 (1:1) medium (IIET, Wroclaw, Poland), supplemented with 5% fetal bovine serum HyClone (GE Healthcare, USA) and 2 mM L-glutamine (Sigma-Aldrich, Germany). Human breast adenocarcinoma cell line was cultured in a mixture of Eagle medium (IIET, Wroclaw, Poland), supplemented with 10% fetal bovine serum, 2 mM L-glutamine, 8 μg/mL insulin and 1% amino acids (Sigma-Aldrich, Germany). Human colon adenocarcinoma cell lines were cultured in a mixture of OptiMEM and RPMI 1640 (1:1) medium (IIET, Wroclaw, Poland), supplemented with 5% fetal bovine serum HyClone (GE Healthcare, USA), 2 mM L-glutamine, 1 mM sodium pyruvate (Sigma-Aldrich, Germany) and 10 μg/100 mL doxorubicin (Accord) for LoVo/DX. Murine embryonic fibroblast cells were cultured in Dulbecco medium (Gibco), supplemented with 10% fetal bovine serum (GE Healthcare, USA) and 2 mM L-glutamine (Sigma-Aldrich, Germany). All culture media contained antibiotics: 100 U/mL penicillin (Polfa-Tarchomin, Poland) and 0.1 mg/mL streptomycin (Sigma Aldrich, Germany). All cell lines were cultured during entire experiment in humid atmosphere at 37 °C and 5% CO2.
(§3) All cell lines were exposed to each tested agent at different concentrations in the range 100–0.001 μg/mL for 72 h. The cells were also exposed to the reference drug cisplatin (Teva Pharmaceuticals, Poland) and doxorubicin (Accord Healthcare Limited, UK). Additionally, all cell lines were exposed to DMSO (solvent used for tested compounds) (POCh, Poland) at concentrations corresponding to those present in dilutions of tested agents. After 72 h sulforhodamine B assay (SRB) was performed.
(§4) After 72 h of incubation with the tested compounds, the cells were fixed in situ by gently adding of 50 μL per well of cold 50% trichloroacetic acid TCA (POCh, Poland) and were incubated at room temperature for one hour. Then the wells were washed four times with water and air dried. Next, 50 μL of 0.1% solution of sulforhodamine B (Sigma-Aldrich, Germany) in 1% acetic acid (POCh, Poland) were added to each well and were incubated at room temperature for 0.5 h. After incubation time, unbound dye was removed by washing plates four times with 1% acetic acid, whereas the stain bound to cells was solubilized with 150 μL of 10 mM Tris base (Sigma-Aldrich, Germany). Absorbance of each solution was read from a Synergy H4 Hybrid Multi-Mode Microplate Reader (BioTek Instruments, USA) at the 540 nm wavelength.

[2] = system: MCF-7; experiment: In vitro antiproliferative activity, SRB assay, MCF-7; format: cell-based, human; settings: for IC50: human breast adenocarcinoma, 72 h, SRB, mean ± SD; for selectivity index (SI) MCF-7: SI = (IC50 BALB/3T3)/(IC50 MCF-7)
Description: as §1, §2, §3, §4

[3] = system: LoVo; experiment: In vitro antiproliferative activity, SRB assay, LoVo; format: cell-based, human; settings: for IC50: human colon adenocarcinoma, 72 h, SRB, mean ± SD; for selectivity index (SI) LoVo: SI = (IC50 BALB/3T3)/(IC50 LoVo)
Description: as §1, §2, §3, §4

[4] = system: BALB/3T3; experiment: In vitro antiproliferative activity, SRB assay, normal fibroblasts BALB/3T3; format: cell-based, murine; settings: for IC50: normal murine embryonic fibroblasts, 72 h, SRB, mean ± SD
Description: as §1, §2, §3, §4

[5] = system: A549; experiment: In vitro antiproliferative activity, SRB assay, A549; format: cell-based, human; settings: for IC50: human lung adenocarcinoma, 72 h, SRB, mean ± SD; for selectivity index (SI) A549: SI = (IC50 BALB/3T3)/(IC50 A549)
Description: as §1, §2, §3, §4

| SMILES | RI (resistance index) [1] | IC50 ([1]; doxorubicin-resistant colon adenocarcinoma subline, SRB, mean ± SD) [nM] | IC50 [2] [nM] | IC50 [3] [nM] | IC50 [4] [nM] | IC50 [5] [nM] | IC50 ([1]; Homo sapiens, LoVo/DX) [nM] | IC50 ([2]; Homo sapiens, MCF7, 72 h) [nM] | IC50 ([3]; Homo sapiens, LoVo) [nM] | IC50 ([4]; Mus musculus, BALB/3T3) [nM] | IC50 ([5]; Homo sapiens, A549, 72 h) [nM] | selectivity index (SI) LoVo [3] | selectivity index (SI) MCF-7 [2] | selectivity index (SI) A549 [5] | selectivity index (SI), cancer cell lines not named at the place ([4]; SI = (IC50 BALB/3T3)/(IC50 respective cancerous cell line), range over several lines) | times more potent than unmodified colchicine 1 ([1]; LoVo/DX line) |
| --- | --- | --- | --- | --- | --- | --- | --- | --- | --- | --- | --- | --- | --- | --- | --- | --- |
| N.N.[Cl][Pt][Cl] [Cisplatin, reference compound] | 1.2 | 8340 ± 1120 | 7140 ± 1220 | 7080 ± 1600 | 5665 ± 31.8 | 5740 ± 968 | – | – | – | – | – | – | – | – | – | – |
| CNc1ccc2c(cc1=O)[C@@H](NC(C)=O)CCc1cc(OC)c(OC)c(OC)c1-2 [Compound 2, 10-methylamino-10-demethoxycolchicine] | 63.0 | – | – | – | – | – | 271 ± 99.9 | 8.6 ± 1.3 | 4.3 ± 1.3 | 10.8 ± 1.3 | 10.8 ± 1.3 | – | – | – | – | – |
| CNc1ccc2c(cc1=O)[C@@H](N)CCc1cc(OC)c(OC)c(OC)c1-2 [Compound 3, N-deacetyl-10-methylamino-10-demethoxycolchicine] | 9.2 | – | 19.7 ± 1.7 | 14 ± 1.7 | – | 16.9 ± 2.8 | 129 ± 11.8 | < 20 | < 20 | 19.7 ± 7 | < 20 | – | – | – | – | – |
| CCC(=O)NC1CCc2cc(OC)c(OC)c(OC)c2-c2ccc(NC)c(=O)cc21 (stereo not shown) [Compound 4] | 28.0 | – | – | – | – | – | 272 ± 104 | 14.6 ± 1.5 | 9.7 ± 1.5 | 19.4 ± 4.1 | 14.6 ± 2.4 | – | – | – | – | – |
| CCCC(=O)N[C@H]1CCc2cc(OC)c(OC)c(OC)c2-c2ccc(NC)c(=O)cc21 [Compound 5] | 20.2 | – | – | – | – | – | 195 ± 51.9 | 14.1 ± 1.4 | 9.6 ± 0.5 | 16.4 ± 3.5 | 14.1 ± 2.4 | – | – | – | – | – |
| CCCCC(=O)NC1CCc2cc(OC)c(OC)c(OC)c2-c2ccc(NC)c(=O)cc21 (stereo not shown) [Compound 6] | 15.0 | – | – | – | – | – | 102 ± 20.7 | 15.9 ± 6.6 | 6.8 ± 3.9 | 13.6 ± 2.3 | 13.6 ± 1.4 | – | – | – | – | – |
| CCCCCCCCCCCCCCCC(=O)N[C@H]1CCc2cc(OC)c(OC)c(OC)c2-c2ccc(NC)c(=O)cc21 [Compound 7] | 39.0 | – | – | – | – | – | 2440 ± 923 | 465 ± 187 | 62.4 ± 16.9 | 546 ± 104 | 614 ± 194 | over 6 | – | – | – | – |
| CNc1ccc2c(cc1=O)C(NC(=O)C(C)C)CCc1cc(OC)c(OC)c(OC)c1-2 (stereo not shown) [Compound 8] | 24.3 | – | – | – | – | – | 171 ± 41.3 | 18.8 ± 9.9 | 7 ± 1.4 | 28.1 ± 10.8 | 11.7 ± 1.4 | 1.5–4.0 | 1.5–4.0 | 1.5–4.0 | – | – |
| CNc1ccc2c(cc1=O)C(NC(=O)CCl)CCc1cc(OC)c(OC)c(OC)c1-2 (stereo not shown) [Compound 9] | 35.2 | – | – | – | – | – | 62.4 ± 6.7 | 9.2 ± 1.4 | 1.8 ± 0.4 | 11.6 ± 2.3 | 11.6 ± 2.8 | over 6 | – | – | – | – |
| CNc1ccc2c(cc1=O)[C@@H](NC(=O)C(Cl)Cl)CCc1cc(OC)c(OC)c(OC)c1-2 [Compound 10] | 25.8 | – | – | – | – | – | 38.5 ± 21.6 | 8.6 ± 1.2 | 1.5 ± 0.5 | 10.7 ± 1.3 | 8.6 ± 1.3 | over 6 | – | – | – | – |
| CNc1ccc2c(cc1=O)C(NC(=O)CCC(F)(F)F)CCc1cc(OC)c(OC)c(OC)c1-2 (stereo not shown) [Compound 11, 4,4,4-trifluorobutyric amide of 10-N-methylaminocolchicine] | 27.8 | – | 12.7 ± 0.4 | 10.4 ± 1.3 | – | 14.6 ± 2.1 | 290 ± 165 | 10.4 to 14.6 | 10.4 to 14.6 | 81.3 ± 20.4 | 10.4 to 14.6 | higher than 5 | higher than 5 | higher than 5 | 5.6–7.8 | – |
| CNc1ccc2c(cc1=O)[C@@H](NC(=O)c1ccccc1)CCc1cc(OC)c(OC)c(OC)c1-2 [Compound 12] | 11.8 | – | – | – | – | – | 99.9 ± 10 | 13 ± 1.3 | 8.5 ± 0.4 | 13 ± 3.3 | 13 ± 1.3 | – | – | – | – | – |
| CNc1ccc2c(cc1=O)[C@@H](NC(=O)c1ccccc1Cl)CCc1cc(OC)c(OC)c(OC)c1-2 [Compound 13] | 14.0 | – | – | – | – | – | 9.6 ± 3.3 | 9.2 ± 0.8 | 0.7 ± 0.1 | 6.2 ± 1.6 | 6.3 ± 3.2 | over 6 | – | – | – | approx. 170 times |
| CNc1ccc2c(cc1=O)[C@@H](NC(=O)c1cccc(F)c1)CCc1cc(OC)c(OC)c(OC)c1-2 [Compound 14] | 12.0 | – | – | – | – | – | 102 ± 24.9 | 12.6 ± 1.3 | 8.6 ± 0.8 | 12.6 ± 2.1 | 10.7 ± 0.6 | – | – | – | – | – |
| CNc1ccc2c(cc1=O)[C@@H](NC(=O)c1cccnc1)CCc1cc(OC)c(OC)c(OC)c1-2 [Compound 15] | 76.8 | – | – | – | – | – | 832 ± 293 | 13 ± 2.2 | 10.8 ± 1.3 | 43.3 ± 29.7 | 36.8 ± 12.1 | – | – | – | – | – |
| CNc1ccc2c(cc1=O)[C@@H](NC(=O)c1ccncc1)CCc1cc(OC)c(OC)c(OC)c1-2 [Compound 16] | 87.4 | – | – | – | – | – | 947 ± 260 | 12.8 ± 0.9 | 10.8 ± 1.3 | 52 ± 29.3 | 17.3 ± 3.7 | – | – | – | – | – |
| CNc1ccc2c(cc1=O)C(NS(N)(=O)=O)CCc1cc(OC)c(OC)c(OC)c1-2 (stereo not shown) [Compound 17] | 306.0 | – | – | – | – | – | 6470 ± 264 | 10.3 ± 3.9 | 21.1 ± 17.5 | 100 ± 24.1 | 56.6 ± 14.7 | – | ~10 and 9.8 | – | – | – |
